Data taken from patent US6358883B1, “Pesticidal and parasiticidal use of 1-aryl-1-(substituted thio, sulfinyl and sulfonyl)-2-nitroethane compounds” (American Cyanamid Company, priority 1998, dated 2002).

Columns and labels:
Assay type in all cases: in vivo
[1] = tested on: Diabrotica virgifera virgifera Leconte, 2nd instar western corn rootworm (WCR); assay: Western corn rootworm (WCR) soil test; set-up: key: 0 = no effect; 1 = 10-25% kill; 2 = 26-35% kill; 3 = 36-45% kill; 4 = 46-55% kill; 5 = 56-65% kill; 6 = 66-75% kill; 7 = 76-85% kill; 8 = 86-99% kill; 9 = 100% kill
Method: Test solutions are prepared by dissolving the test compound in a 35% acetone in water mixture to give a concentration of 10,000 ppm. Subsequent dilutions are made with water as needed. Diabrotica virgifera virgifera Leconte, 2nd Instar Western Corn Rootworm (WCR) One cc of fine talc is placed in a 30 mL wide-mouth screw-top glass jar. One mL of the appropriate acetone test solution is pipetted onto the talc so as to provide 1.25 mg of active ingredient per jar. The jars are set under a gentle air flow until the acetone is evaporated. The dried talc is loosened, 1 cc of millet seed is added to serve as food for the insects and 25 mL of moist soil is added to each jar. The jar is capped and the contents thoroughly mixed mechanically. Following this, ten 2nd instar rootworms are added to each jar and the jars are loosely capped to allow air exchange for the larvae. The treatments are held for 5 days when mortality counts are made. Missing larvae are presumed dead, since they decompose rapidly and cannot be found. The concentrations of active ingredient used in this test correspond approximately to 50 kg/ha. [table]

[2] = tested on: M. incognita (Root Knot Nematode) larvae; assay: Evaluation of test compounds against M. incognita larvae in microtiter plate wells (movement score); conditions: larvae scored for movement after 20-24 hours; note: key: A score of '9' indicates inactive worms with a straight, sticklike morphology; A score of '8' indicates inactive worms with a limp, curled or curved morphology; A score of '7' indicates dead/paralyzed worms after 72 hours
Method: Evaluation of Test Compounds Against M. incognita (Root Knot Nematode)
Newly emerged M. incognita larvae are suspended in S Medium (buffered salt solution) to a concentration of 50-65 worms per 50 μl. 50 μl of the worm suspension are pipetted into microtiter plate wells containing the test compounds. The plates are then covered with plactic plate sealers to reduce loss of volume by evaporation. After 20-24 hours of incubation, the larvae are scored for movement. Wells containing obviously dead/paralyzed larvae are scored as positive. […] A score of “7” indicates dead/paralyzed worms after […].

[3] = tested on: C. elegans (Bristol strain); assay: Evaluation of test compounds against C. elegans (motility, 96-well plate); set-up: key: 9=complete kill in 4 hours; 8=complete kill in 24 hours; 7=markedly reduced motility in approximately 95% of worms in 24 hours; 0=normal motility, same as controls; conditions: motility at 4 and 24 hours
Method: Evaluation of Test Compounds Against C. elegans Cultures of C. elegans (Bristol strain from J. Lewis) are maintained on E. coli lawns on NG Agar Plates at 20° C. New cultures are established weekly. Nematodes for testing are washed from cultures using Na buffer. Compounds are dissolved in 80% acetone. The test material is micropipetted (25 μl) into a single well of a 96-well sterile tissue culture plate and the solvent allowed to evaporate. A freshly prepared volume (50 μl) of C. elegans in Na buffer is micropipetted into each treated well and several control wells per plate. Plates are incubated at 20° C. Observations for efficacy are made under a dissecting microscope at 4 and 24 hours post-immersion. Immediately prior to reading the plate, it is gently tapped to stimulate the movement of the worms. Activity is judged subjectively, but semi-quantitatively, based on the drug effects on motility of the adults and larvae.

[4] = tested on: Spodoptera eridania, 2nd instar larvae, southern armyworm (SAW); assay: Southern armyworm (SAW) leaf dip test; set-up: key: 0 = no effect; 1 = 10-25% kill; 2 = 26-35% kill; 3 = 36-45% kill; 4 = 46-55% kill; 5 = 56-65% kill; 6 = 66-75% kill; 7 = 76-85% kill; 8 = 86-99% kill; 9 = 100% kill
Method: (§1) Test solutions are prepared by dissolving the test compound in a 35% acetone in water mixture to give a concentration of 10,000 ppm. Subsequent dilutions are made with water as needed.
Spodoptera eridania, 2nd Instar Larvae, Southern Armyworm (SAW)
A Sieva lima bean leaf expanded to 7-8 cm in length is dipped in the test solution with agitation for 3 seconds and allowed to dry in a hood. The leaf is then placed in a 100×10 mm petri dish containing a damp filter paper on the bottom and ten 2nd instar caterpillars. At 5 days, observations are made of mortality, reduced feeding, or any interference with normal molting.

[5] = tested on: Diabrotica undecimpunctata howardi, eggs-southern corn rootworm (SCR-Eggs); assay: Southern corn rootworm eggs (SCR-Eggs) treated diet test; set-up: key: 0 = no effect; 1 = 10-25% kill; 2 = 26-35% kill; 3 = 36-45% kill; 4 = 46-55% kill; 5 = 56-65% kill; 6 = 66-75% kill; 7 = 76-85% kill; 8 = 86-99% kill; 9 = 100% kill; conditions: mortality after 7 days
Method: Test solutions are prepared by dissolving the test compound in a 35% acetone in water mixture to give a concentration of 10,000 ppm. Subsequent dilutions are made with water as needed. Spodoptera eridania, Eggs-southern Armyworm and Diabrotica undecimpunctata howardi, Eggs-southern Corn Rootworm (SAW-Eggs) and (SCR-Eggs) Wells containing artificial diet are treated with the test solutions and dried. The appropriate insect eggs are then placed in the wells. The wells are covered with vented, adhesive, clear plastic covers. After 7 days, mortality counts are made. [table]

[6] = tested on: Aphis gossypii, cotton aphid (CA); assay: Cotton aphid (CA) cotyledon dip test; set-up: key: 0 = no effect; 1 = 10-25% kill; 2 = 26-35% kill; 3 = 36-45% kill; 4 = 46-55% kill; 5 = 56-65% kill; 6 = 66-75% kill; 7 = 76-85% kill; 8 = 86-99% kill; 9 = 100% kill; conditions: mortality after 5 days
Method: Test solutions are prepared by dissolving the test compound in a 35% acetone in water mixture to give a concentration of 10,000 ppm. Subsequent dilutions are made with water as needed. Aphis gossypii, Cotton Aphid (CA) Cotton plants at the cotyledon stage are selected and cut back to one plant per pot. A heavily infested leaf is taken from the main colony and placed on top of each cotyledon. The aphids are allowed to transfer to the host plant overnight. At the time of test treatment, the leaf used to transfer the aphids is removed and discarded. The cotyledons are dipped in the test solution and allowed to dry. After 5 days, mortality counts are made. [table]

[7] = tested on: Tetranychus urticae (OP-resistant strain), 2-spotted spider mite (TSM); assay: 2-spotted spider mite (TSM) plant dip test; set-up: key: 0 = no effect; 1 = 10-25% kill; 2 = 26-35% kill; 3 = 36-45% kill; 4 = 46-55% kill; 5 = 56-65% kill; 6 = 66-75% kill; 7 = 76-85% kill; 8 = 86-99% kill; 9 = 100% kill; conditions: mortality after 2 days
Method: as §1
Tetranychus urticae (OP-resistant strain), 2-spotted Spider Mite (TSM)
Sieva lima bean plants with primary leaves expanded to 7-8 cm are selected and cut back to one plant per pot. A small piece is cut from an infested leaf taken from the main colony and placed on each leaf of the test plants. This is done about 2 hours before treatment to allow the mites to move over to the test plant to lay eggs. The size of the cut, infested leaf is varied to obtain about 100 mites per leaf. At the time of test treatment, the piece of leaf used to transfer the mites is removed and discarded. The newly-infested plants are dipped in the test solution for 3 seconds with agitation and set in the hood to dry. After 2 days, one leaf is removed and mortality counts are made.

## O=[N+]([O-])CC(SCc1ccccc1)c1ccccc1Cl (racemic) [Example 93]
[1]
  WCR (50 ppm) rating: 0
[2]
  M. incognita (150 ppm) score: 0
[3]
  Rating Against C. elegans (150 ppm): 0
[4]
  SAW (300 ppm) rating: 0
[5]
  SCR Eggs (1000 ppm) rating: 0
[6]
  CA (300 ppm) rating: 0
[7]
  TSM (300 ppm) rating: 0

## C=CCSC(C[N+](=O)[O-])c1ccccc1F (stereo not shown) [Example 46]
[1]
  WCR (50 ppm) rating: 9 (9 = 100% kill)
[2]
  M. incognita (150 ppm) score: 9
[3]
  Rating Against C. elegans (150 ppm): 7
[4]
  SAW (300 ppm) rating: 1 (1 = 10-25% kill)
[5]
  SCR Eggs (1000 ppm) rating: 0
[6]
  CA (300 ppm) rating: 0
[7]
  TSM (300 ppm) rating: 0

## CCOC(=O)CSC(C[N+](=O)[O-])c1ccccc1F (stereo not shown) [Example 40]
[1]
  WCR (50 ppm) rating: 9 (9 = 100% kill)
[2]
  M. incognita (150 ppm) score: 9
[3]
  Rating Against C. elegans (150 ppm): 8
[4]
  SAW (300 ppm) rating: 3 (3 = 36-45% kill)
[5]
  SCR Eggs (1000 ppm) rating: 0
[6]
  CA (300 ppm) rating: 0
[7]
  TSM (300 ppm) rating: 0

## C=CCSC(C[N+](=O)[O-])c1ccc(C(C)C)cc1 (stereo not shown) [Example 38]
[1]
  WCR (50 ppm) rating: 0
[2]
  M. incognita (150 ppm) score: 0
[3]
  Rating Against C. elegans (150 ppm): 0
[4]
  SAW (300 ppm) rating: 0
[5]
  SCR Eggs (1000 ppm) rating: 9 (9 = 100% kill)
[6]
  CA (300 ppm) rating: 0
[7]
  TSM (300 ppm) rating: 0

## CC(C)CCCCCOC(=O)CSC(C[N+](=O)[O-])c1ccccc1Cl (stereo not shown) [Example 91]
[1]
  WCR (50 ppm) rating: 0
[2]
  M. incognita (150 ppm) score: 0
[3]
  Rating Against C. elegans (150 ppm): 0
[4]
  SAW (300 ppm) rating: 0
[5]
  SCR Eggs (1000 ppm) rating: 0
[6]
  CA (300 ppm) rating: 0
[7]
  TSM (300 ppm) rating: 0

## CCCSC(C[N+](=O)[O-])c1ccccc1Cl (racemic) [Example 94]
[1]
  WCR (50 ppm) rating: 0
[2]
  M. incognita (150 ppm) score: 0
[3]
  Rating Against C. elegans (150 ppm): 0
[4]
  SAW (300 ppm) rating: 0
[5]
  SCR Eggs (1000 ppm) rating: 0
[6]
  CA (300 ppm) rating: 0
[7]
  TSM (300 ppm) rating: 0

## CCCSC(C[N+](=O)[O-])c1ccc(C(C)C)cc1 (stereo not shown) [Example 37]
[1]
  WCR (50 ppm) rating: 0
[2]
  M. incognita (150 ppm) score: 0
[3]
  Rating Against C. elegans (150 ppm): 0
[4]
  SAW (300 ppm) rating: 0
[5]
  SCR Eggs (1000 ppm) rating: 0
[6]
  CA (300 ppm) rating: 0
[7]
  TSM (300 ppm) rating: 0

## O=C(O)CSC(C[N+](=O)[O-])c1ccccc1Cl (racemic) [Example 96]
[1]
  WCR (50 ppm) rating: 0
[2]
  M. incognita (150 ppm) score: 9
[3]
  Rating Against C. elegans (150 ppm): 9
[4]
  SAW (300 ppm) rating: 0
[5]
  SCR Eggs (1000 ppm) rating: 0
[6]
  CA (300 ppm) rating: 0
[7]
  TSM (300 ppm) rating: 0

## CC(C)CCCCCOC(=O)CSC(C[N+](=O)[O-])c1ccccc1F (stereo not shown) [Example 42]
[1]
  WCR (50 ppm) rating: 6 (6 = 66-75% kill)
[2]
  M. incognita (150 ppm) score: 0
[3]
  Rating Against C. elegans (150 ppm): 0
[4]
  SAW (300 ppm) rating: 0
[5]
  SCR Eggs (1000 ppm) rating: 9 (9 = 100% kill)
[6]
  CA (300 ppm) rating: 0
[7]
  TSM (300 ppm) rating: 0

## O=[N+]([O-])CC(SCc1ccccc1)c1ccccc1F (stereo not shown) [Example 44]
[1]
  WCR (50 ppm) rating: 4 (4 = 46-55% kill)
[2]
  M. incognita (150 ppm) score: 0
[3]
  Rating Against C. elegans (150 ppm): 7
[4]
  SAW (300 ppm) rating: 5 (5 = 56-65% kill)
[5]
  SCR Eggs (1000 ppm) rating: 0
[6]
  CA (300 ppm) rating: 0
[7]
  TSM (300 ppm) rating: 0

## CCCSC(C[N+](=O)[O-])c1ccccc1F (stereo not shown) [Example 45]
[1]
  WCR (50 ppm) rating: 8 (8 = 86-99% kill)
[2]
  M. incognita (150 ppm) score: 0
[3]
  Rating Against C. elegans (150 ppm): 0
[4]
  SAW (300 ppm) rating: 0
[5]
  SCR Eggs (1000 ppm) rating: 7 (7 = 76-85% kill)
[6]
  CA (300 ppm) rating: 0
[7]
  TSM (300 ppm) rating: 0

## CCCCC(CC)COC(=O)CSC(C[N+](=O)[O-])c1ccccc1Cl (racemic) [Example 92]
[1]
  WCR (50 ppm) rating: 5 (5 = 56-65% kill)
[2]
  M. incognita (150 ppm) score: 0
[3]
  Rating Against C. elegans (150 ppm): 0
[4]
  SAW (300 ppm) rating: 0
[5]
  SCR Eggs (1000 ppm) rating: 0
[6]
  CA (300 ppm) rating: 0
[7]
  TSM (300 ppm) rating: 0

## COC(=O)CSC(C[N+](=O)[O-])c1ccccc1F (stereo not shown) [Example 39]
[1]
  WCR (50 ppm) rating: 8 (8 = 86-99% kill)
[2]
  M. incognita (150 ppm) score: 9
[3]
  Rating Against C. elegans (150 ppm): 9
[4]
  SAW (300 ppm) rating: 4 (4 = 46-55% kill)
[5]
  SCR Eggs (1000 ppm) rating: 0
[6]
  CA (300 ppm) rating: 0
[7]
  TSM (300 ppm) rating: 0

## CCCCOC(=O)CSC(C[N+](=O)[O-])c1ccccc1F (stereo not shown) [Example 41]
[1]
  WCR (50 ppm) rating: 9 (9 = 100% kill)
[2]
  M. incognita (150 ppm) score: 9
[3]
  Rating Against C. elegans (150 ppm): 7
[4]
  SAW (300 ppm) rating: 1 (1 = 10-25% kill)
[5]
  SCR Eggs (1000 ppm) rating: 0
[6]
  CA (300 ppm) rating: 0
[7]
  TSM (300 ppm) rating: 0

## CC(C)c1ccc(C(C[N+](=O)[O-])SCc2ccccc2)cc1 (stereo not shown) [Example 36]
[1]
  WCR (50 ppm) rating: 0
[2]
  M. incognita (150 ppm) score: 0
[3]
  Rating Against C. elegans (150 ppm): 0
[4]
  SAW (300 ppm) rating: 1 (1 = 10-25% kill)
[5]
  SCR Eggs (1000 ppm) rating: 7 (7 = 76-85% kill)
[6]
  CA (300 ppm) rating: 0
[7]
  TSM (300 ppm) rating: 0

## CCOC(=O)CSC(C[N+](=O)[O-])c1ccccc1Cl (stereo not shown) [Example 89]
[1]
  WCR (50 ppm) rating: 0
[2]
  M. incognita (150 ppm) score: 8
[3]
  Rating Against C. elegans (150 ppm): 0
[4]
  SAW (300 ppm) rating: 0
[5]
  SCR Eggs (1000 ppm) rating: 0
[6]
  CA (300 ppm) rating: 0
[7]
  TSM (300 ppm) rating: 0
